Source: ChEMBL document CHEMBL5678818, “Discovery of potent SOS1 inhibitors that block RAS activation via disruption of the RAS-SOS1 interaction” (Proc Natl Acad Sci U S A, 2019)

What was measured:
[1] = biological target: Tyrosine-protein kinase Fer (Homo sapiens) (UniProt P16591); assay: Inhibition of FER (unknown origin) assessed as residual activity at 1000 nM by KINOMEscan analysis relative to control
[2] = biological target: T1, Serine/threonine-protein kinase tousled-like 1 (Homo sapiens) (UniProt Q9UKI8); assay: Inhibition of TLK1 (unknown origin) assessed as residual activity at 1000 nM by KINOMEscan analysis relative to control
T1 sequence (whole entry): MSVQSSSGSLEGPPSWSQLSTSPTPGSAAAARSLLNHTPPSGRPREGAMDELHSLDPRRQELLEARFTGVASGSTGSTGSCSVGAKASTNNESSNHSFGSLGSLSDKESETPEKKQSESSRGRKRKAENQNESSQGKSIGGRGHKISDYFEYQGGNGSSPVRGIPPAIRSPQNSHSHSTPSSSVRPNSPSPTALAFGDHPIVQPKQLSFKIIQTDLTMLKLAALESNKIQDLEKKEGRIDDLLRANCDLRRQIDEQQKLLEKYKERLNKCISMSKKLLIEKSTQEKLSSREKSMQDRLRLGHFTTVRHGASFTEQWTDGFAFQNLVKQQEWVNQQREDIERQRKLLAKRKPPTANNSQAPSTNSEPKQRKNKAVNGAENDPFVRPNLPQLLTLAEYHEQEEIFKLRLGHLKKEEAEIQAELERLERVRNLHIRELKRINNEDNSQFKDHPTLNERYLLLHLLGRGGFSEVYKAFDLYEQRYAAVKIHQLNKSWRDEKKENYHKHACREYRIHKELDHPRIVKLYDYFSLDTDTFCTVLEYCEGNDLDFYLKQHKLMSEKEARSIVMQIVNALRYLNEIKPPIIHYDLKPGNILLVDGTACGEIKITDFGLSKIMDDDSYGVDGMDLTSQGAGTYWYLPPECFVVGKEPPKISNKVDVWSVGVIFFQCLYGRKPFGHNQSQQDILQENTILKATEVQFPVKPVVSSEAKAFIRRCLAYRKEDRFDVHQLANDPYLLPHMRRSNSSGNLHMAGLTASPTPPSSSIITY

[3] = biological target: T2, Casein kinase I isoform alpha-like (Homo sapiens) (UniProt Q8N752); assay: Inhibition of CSNK1A1L (unknown origin) assessed as residual activity at 1000 nM by KINOMEscan analysis relative to control
T2 sequence (whole entry): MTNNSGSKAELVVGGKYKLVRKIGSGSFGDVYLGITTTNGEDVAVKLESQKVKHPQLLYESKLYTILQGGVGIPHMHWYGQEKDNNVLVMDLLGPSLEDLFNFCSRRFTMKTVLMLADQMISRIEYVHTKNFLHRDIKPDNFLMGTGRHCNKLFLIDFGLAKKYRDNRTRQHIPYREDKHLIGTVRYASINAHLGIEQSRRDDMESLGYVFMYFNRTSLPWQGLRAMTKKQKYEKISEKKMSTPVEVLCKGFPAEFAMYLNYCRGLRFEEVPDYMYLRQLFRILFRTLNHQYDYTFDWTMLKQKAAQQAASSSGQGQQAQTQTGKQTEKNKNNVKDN

[4] = biological target: T3, Serine/threonine-protein kinase DCLK2 (Homo sapiens) (UniProt Q8N568); assay: Inhibition of DCAMKL2 (unknown origin) assessed as residual activity at 1000 nM by KINOMEscan analysis relative to control
T3 sequence (whole entry): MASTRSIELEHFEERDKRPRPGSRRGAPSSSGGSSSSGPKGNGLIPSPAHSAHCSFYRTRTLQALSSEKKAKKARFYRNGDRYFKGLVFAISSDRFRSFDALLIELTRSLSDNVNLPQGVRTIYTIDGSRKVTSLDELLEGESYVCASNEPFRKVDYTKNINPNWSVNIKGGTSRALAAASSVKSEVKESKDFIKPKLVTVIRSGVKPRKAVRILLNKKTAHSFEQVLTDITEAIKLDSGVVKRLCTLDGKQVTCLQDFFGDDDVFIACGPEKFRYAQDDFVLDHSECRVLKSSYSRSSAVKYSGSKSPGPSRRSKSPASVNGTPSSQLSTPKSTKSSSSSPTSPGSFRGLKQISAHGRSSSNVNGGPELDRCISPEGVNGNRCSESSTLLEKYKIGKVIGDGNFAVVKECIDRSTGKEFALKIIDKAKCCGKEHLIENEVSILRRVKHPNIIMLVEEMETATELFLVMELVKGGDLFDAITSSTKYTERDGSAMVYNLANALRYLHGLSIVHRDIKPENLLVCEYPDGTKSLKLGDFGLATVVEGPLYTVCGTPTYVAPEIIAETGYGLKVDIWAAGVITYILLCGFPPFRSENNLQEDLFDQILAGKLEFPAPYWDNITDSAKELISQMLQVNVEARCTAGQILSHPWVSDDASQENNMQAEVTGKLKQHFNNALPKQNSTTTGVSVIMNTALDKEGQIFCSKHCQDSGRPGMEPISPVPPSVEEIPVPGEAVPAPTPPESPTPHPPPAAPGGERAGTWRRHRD

[5] = biological target: T4, Aurora kinase C (Homo sapiens) (UniProt Q9UQB9); assay: Inhibition of AURKC (unknown origin) assessed as residual activity at 1000 nM by KINOMEscan analysis relative to control
T4 sequence (whole entry): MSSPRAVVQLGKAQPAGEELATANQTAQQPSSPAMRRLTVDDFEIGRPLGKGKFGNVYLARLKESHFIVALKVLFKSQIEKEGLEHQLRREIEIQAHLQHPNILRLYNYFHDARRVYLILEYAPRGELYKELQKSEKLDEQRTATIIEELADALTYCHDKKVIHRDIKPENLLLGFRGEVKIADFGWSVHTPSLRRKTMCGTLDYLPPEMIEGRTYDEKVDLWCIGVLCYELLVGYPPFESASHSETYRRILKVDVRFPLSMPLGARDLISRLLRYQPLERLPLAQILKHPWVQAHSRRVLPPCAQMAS

Chain of Tyrosine-protein kinase Fer (Homo sapiens) (P16591 whole entry, looked up): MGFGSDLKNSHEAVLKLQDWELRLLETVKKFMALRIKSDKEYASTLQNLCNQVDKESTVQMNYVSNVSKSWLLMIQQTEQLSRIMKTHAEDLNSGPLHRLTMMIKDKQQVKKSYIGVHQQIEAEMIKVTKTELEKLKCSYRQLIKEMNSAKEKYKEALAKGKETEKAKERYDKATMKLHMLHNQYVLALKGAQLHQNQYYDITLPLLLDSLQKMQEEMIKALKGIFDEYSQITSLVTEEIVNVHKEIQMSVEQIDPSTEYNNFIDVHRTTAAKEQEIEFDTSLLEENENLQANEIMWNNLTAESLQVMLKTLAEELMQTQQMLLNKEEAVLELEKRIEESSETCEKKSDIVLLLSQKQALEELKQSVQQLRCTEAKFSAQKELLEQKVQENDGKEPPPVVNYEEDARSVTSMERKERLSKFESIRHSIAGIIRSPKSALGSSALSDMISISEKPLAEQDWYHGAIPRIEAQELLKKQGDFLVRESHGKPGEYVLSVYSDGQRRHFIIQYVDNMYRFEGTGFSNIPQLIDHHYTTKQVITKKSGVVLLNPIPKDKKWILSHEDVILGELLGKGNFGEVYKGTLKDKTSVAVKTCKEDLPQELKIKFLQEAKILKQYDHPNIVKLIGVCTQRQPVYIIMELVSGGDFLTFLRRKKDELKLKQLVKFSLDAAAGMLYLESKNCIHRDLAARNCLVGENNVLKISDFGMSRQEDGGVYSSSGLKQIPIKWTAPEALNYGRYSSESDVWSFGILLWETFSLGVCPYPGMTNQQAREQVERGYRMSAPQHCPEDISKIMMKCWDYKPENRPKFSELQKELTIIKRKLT

SMILES | Activity [1] [%] | Activity [2] [%] | Activity [3] [%] | Activity [4] [%] | Activity [5] [%]
COc1cc2nc(C)nc(N[C@H](C)c3cccc(-c4cn[nH]c4)c3)c2cc1OC | 99 | 78 | 65 | 98 | 74
COc1cc2ncnc(N[C@H](C)c3cccc4ccccc34)c2cc1OC | 97 | 100 | 100 | 100 | 100
